Counter-ions that a name gives are not always drawn.
Columns and labels:
[1] = system: P-gp expressing CD33(+) leukemia cells; conditions: cited from earlier work
[2] = use of CAPTISOL

SMILES | reversal of resistance to Mylotarg [1] | increase in water solubility with CAPTISOL [2]
O=C(C(c1ccccc1)c1ccccc1)N1CCN(CC(O)COc2cccc3ncccc23)CC1.O=C(O)/C=C/C(=O)O (centres unmarked) [MS-209] | reverse the resistance to Mylotarg | 
OC(COc1cccc2ncccc12)CN1CCN([C@@H]2c3ccccc3[C@@H]3[C@H](c4ccccc42)C3(F)F)CC1 (some centres unmarked) [zosuquidar trihydrochloride] |  | > 5 fold

Reference: patent publication US20070010485A1 (priority 2005, published 2007)
